Data from patent publication US6605742B2, “Cyclo azaphospha hydrocarbons” (priority 2001, dated 2003).

How the values were obtained:
Type in all cases: biochemical
MMP-1 = molecular target: T1, MMP-1 (Homo sapiens, UniProt P03956); test: Test for MMP inhibitory effects: cleavage of fluorogenic substrate M-2055 by MMP-1
T1 construct: purchased Chemicon International, CA, USA
T1 sequence (P03956 100-469): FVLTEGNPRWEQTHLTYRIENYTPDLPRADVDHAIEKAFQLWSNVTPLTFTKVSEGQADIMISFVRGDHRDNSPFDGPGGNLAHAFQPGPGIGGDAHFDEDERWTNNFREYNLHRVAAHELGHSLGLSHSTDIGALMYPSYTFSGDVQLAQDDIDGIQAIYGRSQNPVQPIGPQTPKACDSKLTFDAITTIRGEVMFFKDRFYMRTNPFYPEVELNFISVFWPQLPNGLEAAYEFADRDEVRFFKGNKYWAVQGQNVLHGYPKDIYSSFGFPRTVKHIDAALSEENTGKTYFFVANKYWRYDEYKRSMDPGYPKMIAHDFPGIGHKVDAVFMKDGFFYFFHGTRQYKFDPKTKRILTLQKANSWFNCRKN
Experimental: (§1) The assay measures the effect of the tested compounds on the proteolytic activity of metalloproteases by assessing the cleavage of a fluorogenic substrate. In the uncleaved substrate the fluoresensce is quenched intramolecularly, however, cleavage of the substrate relieves the quenching yielding fluorescent peptides [Bickett, Anal. Biochem, 212, 58-64, 1993; Knight, FEBS Lett., 296, 263-266, 1992].
(§2) The compounds were tested for inhibitory effects towards MMP-1 and MMP-9 (Chemicon International, CA, USA) and MMP-2 (Biogenesis Ltd, UK). Substrate for MMP-1 was M-2055 (Dnp-Pro-β-cyclohexyl-Ala-Gly-Cys(Me)-His-Ala-Lys(N-Me-Abz)-NH2), which is a synthetic peptide-like structure, obtained from Bachem AG, Schwitzerland. Substrate for MMP-2 and MMP-9 was fluorescein-conjugated gelatin obtained from Molecular Probes Inc., OR, USA.
(§3) The enzymes were activated with phenyl mercuric acetate, and incubated with the appropriate substrate and different levels of the compound to be tested. The exitation/emission wavelengths were 350/450 and 485/530 for M-2055 and gelatine, respectively.
(§4) The molar concentration of the test compounds resulting in 50% inhibition of the enzymatic activity (IC50) was calculated from the dose-response curve. For convenience, the results are reported as pIC50, i.e. −log(IC50).

MMP-9 = molecular target: T2, MMP-9 (Homo sapiens, UniProt P14780); test: Test for MMP inhibitory effects: cleavage of fluorescein-conjugated gelatin by MMP-9
T2 construct: purchased Chemicon International, CA, USA
Experimental: as §1, §2, §3, §4

MMP-2 = molecular target: T3, MMP-2 (Homo sapiens, UniProt P08253); test: Test for MMP inhibitory effects: cleavage of fluorescein-conjugated gelatin by MMP-2
T3 construct: purchased Biogenesis Ltd, UK
T3 sequence (P08253 110-660): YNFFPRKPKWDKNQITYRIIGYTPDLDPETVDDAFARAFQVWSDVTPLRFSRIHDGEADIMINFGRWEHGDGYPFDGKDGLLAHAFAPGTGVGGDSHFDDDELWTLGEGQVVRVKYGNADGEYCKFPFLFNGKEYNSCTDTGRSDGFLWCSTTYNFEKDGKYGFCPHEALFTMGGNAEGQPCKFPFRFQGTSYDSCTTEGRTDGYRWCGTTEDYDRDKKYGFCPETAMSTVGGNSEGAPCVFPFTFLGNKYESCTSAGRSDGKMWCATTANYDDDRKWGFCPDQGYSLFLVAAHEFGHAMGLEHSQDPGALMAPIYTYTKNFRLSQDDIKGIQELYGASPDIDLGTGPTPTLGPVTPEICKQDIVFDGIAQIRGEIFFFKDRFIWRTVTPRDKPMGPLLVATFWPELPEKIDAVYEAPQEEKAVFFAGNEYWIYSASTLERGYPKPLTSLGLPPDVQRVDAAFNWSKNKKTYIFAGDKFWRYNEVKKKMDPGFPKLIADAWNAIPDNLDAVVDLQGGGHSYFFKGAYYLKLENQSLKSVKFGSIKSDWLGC
Experimental: as §1, §2, §3, §4

[1] = pIC50 = -log(IC50), molar, enzyme activated with phenyl mercuric acetate, substrate fluorescein-conjugated gelatin, excitation/emission 485/530

T2 sequence (P14780 107-707 limits assumed, species assumed): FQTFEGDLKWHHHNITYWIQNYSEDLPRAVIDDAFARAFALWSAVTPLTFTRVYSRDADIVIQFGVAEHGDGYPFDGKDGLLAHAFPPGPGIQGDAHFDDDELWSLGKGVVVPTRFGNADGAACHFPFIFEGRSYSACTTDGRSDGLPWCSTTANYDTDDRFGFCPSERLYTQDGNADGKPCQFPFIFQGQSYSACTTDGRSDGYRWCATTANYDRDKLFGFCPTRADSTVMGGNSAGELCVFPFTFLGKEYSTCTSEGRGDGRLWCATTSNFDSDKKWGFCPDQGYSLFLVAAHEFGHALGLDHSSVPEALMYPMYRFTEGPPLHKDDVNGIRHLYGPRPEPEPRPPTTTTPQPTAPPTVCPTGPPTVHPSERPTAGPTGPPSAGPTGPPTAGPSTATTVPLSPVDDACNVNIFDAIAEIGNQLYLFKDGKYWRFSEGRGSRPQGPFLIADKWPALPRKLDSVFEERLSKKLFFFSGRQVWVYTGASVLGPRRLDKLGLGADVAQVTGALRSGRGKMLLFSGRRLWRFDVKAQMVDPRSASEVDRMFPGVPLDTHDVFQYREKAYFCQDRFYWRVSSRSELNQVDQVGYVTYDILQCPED

| SMILES | IC50 (MMP-1) | IC50 (MMP-9) | IC50 (MMP-2) | pIC50 MMP-1 (MMP-1; pIC50 = -log(IC50), molar, enzyme activated with phenyl mercuric acetate, substrate M-2055, excitation/emission 350/450) | pIC50 MMP-9 (MMP-9; [1]) | pIC50 MMP-2 (MMP-2; [1]) |
| --- | --- | --- | --- | --- | --- | --- |
| O=C(CN1CC=CCP1(=O)c1ccc(Oc2ccccc2)cc1)NO (racemic) [Example 1, (±)-N-hydroxy-2-oxo-2-(4-phenoxyphenyl)-azaphosphorin-4-ene-1-acetamide] | 2510 nM | 1 nM | 5.01 nM | – | – | – |
| O=C(CN1CC=CCCP1(=O)c1ccc(Oc2ccccc2)cc1)NO (racemic) [Example 4, (±)-N-hydroxy-2-oxo-2-(4-phenoxyphenyl)-azaphosphorep-5-ene-1-acetamide] | 7940 nM | 6.31 nM | 7.94 nM | – | – | – |
| O=C(CN1CCCCCP1(=O)c1ccc(Oc2ccccc2)cc1)NO (racemic) [Example 5, (±)-N-hydroxy-2-oxo-2-(4-phenoxyphenyl)-azaphosphorepane-1-acetamide] | – | – | – | 5.2 | 8.5 | 8.3 |
| O=C(CN1CC=CCP1(=O)c1ccc(Oc2ccc(Cl)cc2)cc1)NO (racemic) [Example 6, (±)-N-hydroxy-2-(4-(4-chlorophenoxy)-phenyl-2-oxo-azaphosphorin-4-ene-1-acetamide] | 5010 nM | 0.794 nM | 3.98 nM | – | – | – |
